Legend:
Format in all cases: cell-based, human
keratinocytes = test: Rate of DNA synthesis (3H-thymidine incorporation) in keratinocytes; conditions: for DNA synthesis, % of control (100 nM 1,25D + 5 uM ceramide Formula A) / DNA synthesis, % of control (azole, only 100 nM 1,25D): Table 4; for DNA synthesis, % of control (100 nM 1,25D + 5 uM ceramide Formula A): 10 uM azole (or no azole) + 100 nM 1,25D + 5 uM ceramide Formula A; for DNA synthesis, % of control (100 nM 1,25D + 5 uM ceramide Formula A) / DNA synthesis, % of control (azole, only 100 nM 1,25D) / DNA synthesis: mean + SD; for DNA synthesis, % of control (100 nM 1,25D + 5 uM ceramide Formula A) / keratinocyte DNA synthesis, % of the corresponding controls (10 uM Econazole) / keratinocyte DNA synthesis, % of the corresponding controls (no azole): * = synergistic effect; for DNA synthesis, % of control (azole, only 100 nM 1,25D): 10 uM azole, no ceramide; for DNA synthesis, % of control (azole, only 100 nM 1,25D) / DNA synthesis / DNA synthesis (% control) / keratinocyte DNA synthesis, % of the corresponding controls (1 uM Econazole) / keratinocyte DNA synthesis, % of the corresponding controls (10 uM Econazole) / keratinocyte DNA synthesis, % of the corresponding controls (no azole): 100 nM 1,25D; for keratinocyte DNA synthesis, % of the corresponding controls (1 uM Econazole) / keratinocyte DNA synthesis, % of the corresponding controls (10 uM Econazole) / keratinocyte DNA synthesis, % of the corresponding controls (no azole): Table 5; for keratinocyte DNA synthesis, % of the corresponding controls (1 uM Econazole): 1 uM ceramide + 1 uM Econazole; for keratinocyte DNA synthesis, % of the corresponding controls (10 uM Econazole): 1 uM ceramide + 10 uM Econazole; for keratinocyte DNA synthesis, % of the corresponding controls (no azole): 1 uM ceramide
Method: (§1) 1. Normal human keratinocytes isolated from neonatal foreskins by trypsin treatment were grown in DME medium/10% fetal calf serum in the presence of irradiated 3T3 mouse fibroblasts for establishing dividing keratinocyte colonies. Keratinocytes were grown under the above condition until their third passage.
2. For the experiments, third passage keratinocytes were plated into a serum-free keratinocyte growth medium (KSFM; obtained from Life Technologies, Grand Island, N.Y.) containing 0.09 mM calcium. 20,000 to 30,000 cells were plated into each well of 24 well cell culture plates and grown for 5 days, until the cells reach about 80% confluence.
3. Medium was changed to fresh medium and the various test materials were added to the medium from an ethanolic stock solution (10:00 AM). The final ethanol concentration in the cultures was kept below 0.2%. Control cultures received no tested material but were dosed with 0.2% ethanol. Each compound or combination was tested in three separate wells. By 4:00 PM, 1 uCi of ^3 H-thymidine (Amersham Corp., Sp activity 40 Ci/mmol) was added to the 1 ml medium in each well. The cells were incubated overnight and […] (10:00 AM next day) the amount of ^3 -thymidine associated with the cellular DNA of keratinocytes was assessed as described below.
4. The medium was aspirated, and the wells washed with 1 ml phosphate-buffered saline. The DNA and proteins of the cells in the plate were then precipitated by adding 1 ml of ice-cold 10% trichloroacetic acid (TCA). The plates were left on ice for 30 minutes to complete the precipitation process. TCA was then aspirated and each well was then washed four times with 5% TCA. The plates were then dried on a filter pad and the cells in the wells were dissolved in 0.5 ml of 0.1N sodium hydroxide. The sodium hydroxide was then neutralized using 0.1N hydrochloric acid and the solution (1 ml total volume) was then transferred to a scintillation vial. 50 μl samples from each vial were used for protein assay using BCA protein assay reagent obtained from Pierce Chemical Company. 8 ml of a scintillation fluid (Ecolume) was added to the rest of the solution in the vial, and the vials were counted in a scintillation counter to determine the amount of radioactivity in each vial. The DNA synthesis rate was then calculated as cpm ^3 H thymidine incorporated into total cellular DNA/microgram of cell protein for each individual well. Mean and standard deviation for each group was also calculated.
Rationale for using 1,25D is that in in vivo situation, these azoles will inhibit the endogenous degradation of the 1,25D which is obtained from the circulation. Azoles will act in keratinocytes to increase the endogenous levels of 1,25D within cells. Keratinocytes (70% confluent) were incubated with 10 uM of the different azoles in the presence of 100 nM 1,25D. One of the groups was treated with 5 uM of ceramide of Formula A in the medium. After four hours, all the wells were treated with 1 uCi ^3 H-thymidine and the rate of DNA synthesis was estimated as described in the methods.
Keratinocytes were incubated with 1 or 10 uM of Econazole in the presence of 1 uM of the different ceramide analogues and 100 nM 1,25D in the medium. Thymidine incorporation was measured with an overnight incubation as described in Example 2.

[1] = test system: 25D degradation (vitamin D metabolism in keratinocytes); test: Vitamin D metabolism in keratinocytes: 25D degradation; conditions: for blocking of 25D degradation (in words) / 25D degradation (%): 1 uM; for blocking of 25D degradation (in words): 20 hours (Table 2); for % degradation (25D): Table 1, 10 uM compound; for 25D degradation (%): Table 2, 20 hour incubation, mean of duplicate (range); for 25D (% degradation): Table 3, 10 uM; for inhibition of 25D metabolism (in words): results of Table 1
Method: as §1
(§2) 80% confluent keratinocytes were incubated with 0.05 uCi of ^3 H-25D or ^3 H-1,25D for two hours or 20 hours in the presence of 1-100 uM of the different compounds. Reaction was stopped by addition of methanol and the cells and medium were extracted using chloroform:methanol. The chloroform layer was separated, dried and spotted on TLC plates. […] The amount of radioactivity in each lane was quantitated using the BioScan radioactive plate reader. The amount of radioactivity remaining in the peak area of 25D and 1,25D were calculated as % of control. The % remaining was subtracted from 100 to get the % degradation of the metabolites.
(§3) The data are expressed as mean of % degradation of 25D or 1,25D. The range is also given in parenthesis.

[2] = test system: 1,25D degradation (vitamin D metabolism in keratinocytes); test: Vitamin D metabolism in keratinocytes: 1,25D degradation; conditions: for blocking of 1,25D degradation (in words) / 1,25D degradation (%): 1 uM; for blocking of 1,25D degradation (in words): 20 hours (Table 2); for % degradation (1,25D): Table 1, 10 uM compound; for 1,25D degradation (%): Table 2, 20 hour incubation, mean of duplicate (range); for 1,25D (% degradation): Table 3, 10 uM; for inhibition of 1,25D metabolism (in words): results of Table 1
Method: as §1, §2, §3

[3] = Tables 4A-4F, azole 10 uM, ceramide Formula A 5 uM
[4] = Tables 4A-4F, azole 10 uM, 1440 min
[5] = Tables 5A-5I, Econazole 10 uM, ceramide analogue 1 uM

## Clc1ccccc1C(c1ccccc1)(c1ccccc1)n1ccnc1 [Clotrimazole]
keratinocytes; 1440 min
  DNA synthesis, % of control (100 nM 1,25D + 5 uM ceramide Formula A): 19.5 + 0.77 % of control
  DNA synthesis, % of control (azole, only 100 nM 1,25D): 35.2 + 6.5 % of control
keratinocytes; [3]
  DNA synthesis: 51610 + 6735 cpm 3H thymidine incorporated
keratinocytes; [4]
  DNA synthesis (% control): 35.2 % control
[1]
  blocking of 25D degradation (in words): very effective
  % degradation (25D): 5%
  25D degradation (%): 47.4 (42.6-52.2) %
  inhibition of 25D metabolism (in words): most potent
[1]; 2 hours
  blocking of 25D metabolism (in words): ineffective
  25D (% degradation): 79%
[1]; 20 hours
  blocking of 25D metabolism (in words): very effective
  25D (% degradation): 5%
[2]
  blocking of 1,25D degradation (in words): very effective
  % degradation (1,25D): 2%
  1,25D degradation (%): 29.5 (21.8-37.2) %
  inhibition of 1,25D metabolism (in words): most potent
[2]; 2 hours
  blocking of 1,25D metabolism (in words): ineffective
  1,25D (% degradation): 77%
[2]; 20 hours
  blocking of 1,25D metabolism (in words): very effective
  1,25D (% degradation): 2%

## Clc1ccc(COC(Cn2ccnc2)c2ccc(Cl)cc2Cl)cc1 (centres unmarked) [Econazole]
keratinocytes; 1440 min
  DNA synthesis, % of control (100 nM 1,25D + 5 uM ceramide Formula A): 22.5 + 2.4 % of control
  DNA synthesis, % of control (azole, only 100 nM 1,25D): 64.5 + 3.9 % of control
keratinocytes; [3]
  DNA synthesis: 94719 + 5732 cpm 3H thymidine incorporated
keratinocytes; [4]
  DNA synthesis (% control): 64.57 % control
keratinocytes; [5]
  DNA synthesis (% control): 50.5 % control
  DNA synthesis: 15147 + 4337 cpm 3H thymidine incorporated
[1]
  blocking of 25D degradation (in words): very effective
  % degradation (25D): 5%
  25D degradation (%): 54.1 (44.3-63.9) %
  inhibition of 25D metabolism (in words): most potent
[1]; 2 hours
  blocking of 25D metabolism (in words): ineffective
  25D (% degradation): 92%
[1]; 20 hours
  blocking of 25D metabolism (in words): very effective
  25D (% degradation): 5%
[2]
  blocking of 1,25D degradation (in words): very effective
  % degradation (1,25D): 2%
  1,25D degradation (%): 46.8 (45.1-48.6) %
  inhibition of 1,25D metabolism (in words): most potent
[2]; 2 hours
  blocking of 1,25D metabolism (in words): ineffective
  1,25D (% degradation): 78%
[2]; 20 hours
  blocking of 1,25D metabolism (in words): very effective
  1,25D (% degradation): 2%

## CCCCCCCCCCCCC/C=C/C(O)C(CO)NC(C)=O (centres unmarked) [Formula A]
keratinocytes; 1440 min
  DNA synthesis, % of control (100 nM 1,25D + 5 uM ceramide Formula A): 81.1 + 16.5 % of control
keratinocytes
  keratinocyte DNA synthesis, % of the corresponding controls (1 uM Econazole): 75.9 + 23.3%
  keratinocyte DNA synthesis, % of the corresponding controls (10 uM Econazole): 38.2 + 13.9%
  keratinocyte DNA synthesis, % of the corresponding controls (no azole): 97 + 32%
keratinocytes; Tables 4A-4F, azole 10 uM, ceramide Formula A 5 uM, 1440 min
  DNA synthesis (% control): 74.14 % control
keratinocytes; [3]
  DNA synthesis: 108753 + 24719 cpm 3H thymidine incorporated
keratinocytes; [5]
  DNA synthesis (% control): 97.7 % control
  DNA synthesis: 29272 + 11126 cpm 3H thymidine incorporated

## CCCCCCCCCCCCC/C=C/C(O)C(CO)NC(=O)CCCCC (centres unmarked) [Formula B]
keratinocytes
  keratinocyte DNA synthesis, % of the corresponding controls (1 uM Econazole): 123.9 + 30.3%
  keratinocyte DNA synthesis, % of the corresponding controls (10 uM Econazole): 61.7 + 17%
  keratinocyte DNA synthesis, % of the corresponding controls (no azole): 126.6 ± 17.8%
keratinocytes; [5]
  DNA synthesis (% control): 126 % control
  DNA synthesis: 37927 + 6562 cpm 3H thymidine incorporated

## CCCCCCCCCCCCCCC(O)CN(CCO)C(C)=O (centres unmarked) [Formula C]
keratinocytes
  keratinocyte DNA synthesis, % of the corresponding controls (1 uM Econazole): 78.0 + 15.1%
  keratinocyte DNA synthesis, % of the corresponding controls (10 uM Econazole): 47.2 + 33.6%
  keratinocyte DNA synthesis, % of the corresponding controls (no azole): 77.7 ± 7.4%
keratinocytes; [5]
  DNA synthesis (% control): 77.7 % control
  DNA synthesis: 23288 + 2737 cpm 3H thymidine incorporated

## CCCCCCCCCCCCCCC(O)CN(CCO)C(=O)CCCCC (centres unmarked) [Formula D]
keratinocytes; 1 uM, absence of azole
  growth inhibition by ceramide analogues (in words): significantly inhibitory
keratinocytes
  keratinocyte DNA synthesis, % of the corresponding controls (1 uM Econazole): 97.0 + 19.5%
  keratinocyte DNA synthesis, % of the corresponding controls (10 uM Econazole): 28.8 + 3.9%
  keratinocyte DNA synthesis, % of the corresponding controls (no azole): 69.5 ± 11.3%
keratinocytes; [5]
  DNA synthesis (% control): 69.5 % control
  DNA synthesis: 20817 + 3928 cpm 3H thymidine incorporated

## CCCCCCCCCCCCCCCCOCC(O)CN(CCO)C(C)=O (centres unmarked) [Formula E]
keratinocytes
  keratinocyte DNA synthesis, % of the corresponding controls (1 uM Econazole): 99.8 + 19.1%
  keratinocyte DNA synthesis, % of the corresponding controls (10 uM Econazole): 20.5 + 12.9%
  keratinocyte DNA synthesis, % of the corresponding controls (no azole): 104.3 ± 17.7%
keratinocytes; [5]
  DNA synthesis (% control): 104.4 % control
  DNA synthesis: 31267 + 6143 cpm 3H thymidine incorporated

— patent US5582832A, “Compositions for topical application to skin” (priority 1995, dated 1996)
